Measurements: PubChem BioAssay (NCI)
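Five compound concentrations were applied to cells in 96-well plates for 48 hours; endpoints were derived by simple linear interpolation of the resulting dose-response curve. GI50 is the concentration that inhibits growth by half. TGI: concentration producing complete growth inhibition.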

What was measured:
Test in all cases: growth of human tumour cells (NCI), 48 h
[1] = system: SNB-19 CNS
[2] = system: OVCAR-3 ovarian
[3] = system: HL-60(TB) leukemia
[4] = system: MDA-MB-435
[5] = system: SK-OV-3 ovarian
[6] = system: MALME-3M melanoma
[7] = system: HCT-116 colon
[8] = system: EKVX NSCLC
[9] = system: NCI-H522 lung
[10] = system: SR leukemia

Structure (SMILES) | GI50 [1] [µM] | TGI [1] [µM] | GI50 [2] [µM] | TGI [2] [µM] | GI50 [3] [µM] | TGI [3] [µM] | GI50 [4] [µM] | TGI [4] [µM] | GI50 [5] [µM] | TGI [5] [µM] | GI50 [6] [µM] | TGI [6] [µM] | GI50 [7] [µM] | TGI [7] [µM] | GI50 [8] [µM] | TGI [8] [µM] | GI50 [9] [µM] | TGI [9] [µM] | TGI [10] [µM] | GI50 [10] [µM]
Cl.Fc1c[c-]c(-c2ccccn2)c(F)c1.[Pt].c1ccc([PH+](CC[PH+](c2ccccc2)c2ccccc2)c2ccccc2)cc1 | 0.0656 | 1.26 | 0.0827 | 0.414 | 0.0563 | 0.319 | 0.127 | 0.51 | 0.184 | 0.754 | 0.061 | 0.409 | – | – | – | – | – | – | – | –
O=C(Nc1ccncc1)C(=O)c1cn(S(=O)(=O)c2ccccc2F)c2ccccc12 | 7.17 | > 80.4 | 0.893 | 6.85 | 0.576 | – | 0.188 | 0.695 | 12 | 36.6 | 1.65 | > 100 | 0.504 | > 37.8 | 3.72 | > 100 | 0.371 | 4.09 | – | –
O=C(O)c1ccc([N+](=O)[O-])c2c(=O)c3ccccc3[nH]c12 | – | > 100 | – | – | – | > 100 | – | – | – | > 100 | – | > 100 | – | > 100 | – | – | – | > 100 | > 100 | –
CCOC(=O)C#Cc1ccc(C#CC(=O)OCC)cc1 | – | > 38.3 | – | > 20.5 | – | 6.34 | – | 3.86 | – | 84.2 | – | 21.3 | – | 11.2 | – | > 24.7 | – | – | – | –
Cc1nc(NC(=S)Nc2ccc(F)cc2)sc1C(=O)NNC(=S)Nc1ccc(F)cc1 | 8.39 | 66.5 | 2.55 | 10.1 | 3.68 | 27.8 | 7.34 | 55.2 | 15.7 | 61.6 | 13.1 | 35.5 | 7.93 | > 100 | 4.61 | > 100 | 21.1 | > 100 | – | –
Cc1cc(S(=O)(=O)NC#N)c(S/C(=N\Nc2ccc([N+](=O)[O-])cc2)c2ccccc2)cc1Cl | 38 | > 100 | 14.2 | 30.5 | 21.6 | 83.1 | 32.7 | > 100 | > 100 | > 100 | 16.5 | 39.6 | 13.8 | 30.6 | 17.2 | 34.7 | 14.6 | 32.6 | – | –
CCCC(=O)N[C@@H](Cc1cc(I)c(O)c(I)c1)C(=O)NCCCNCCCCNCCCNC(=O)[C@@H](N)CCCN=C(N)N | – | > 100 | – | > 100 | – | > 100 | – | – | – | – | – | > 100 | – | > 100 | – | > 100 | – | > 100 | > 100 | –
COc1ccc(C(=O)/C=C/c2cc(C(=O)c3cc(OC)c(OC)c(OC)c3)ccc2OC)cc1 | 4.54 | > 100 | – | – | – | – | – | – | > 100 | > 100 | – | – | – | – | – | – | – | – | – | –
CN(/N=N/c1nc(OCc2ccccc2)c2[nH]cnc2n1)C(=O)N(C)/N=N/c1nc(OCc2ccccc2)c2[nH]cnc2n1 | > 100 | > 100 | 34.8 | > 100 | 63.7 | > 100 | 49.1 | > 100 | 42.1 | > 100 | 40.8 | > 100 | 35.2 | > 100 | 38.3 | > 100 | 39.4 | > 100 | – | –
CCOC(=O)[C@@H](C)C[C@H](Cc1ccccc1)NC(=O)c1csc([C@@H](C[C@H](C(C)C)N(C)C(=O)[C@H](CCC(C)C)NC(=O)[C@H]2CCCCN2C)OC(C)=O)n1 | < 0.00333 | 10.7 | < 0.00333 | 0.0335 | < 0.00333 | 0.0104 | – | – | 0.00929 | 9.26 | – | – | 0.00424 | 8.17 | 0.0153 | > 33.3 | < 0.00333 | 0.00708 | 3.77 | < 0.00333
c1cncc(C(Nc2cccc3cccnc23)Nc2cccc3cccnc23)c1 | – | > 100 | – | > 100 | – | > 100 | – | > 100 | – | > 100 | – | – | – | > 100 | – | > 100 | – | > 100 | – | –
Fc1ccc(-c2nnc3sc(-c4cccc(Cl)c4)nn23)cc1Cl | > 100 | > 100 | > 100 | > 100 | > 100 | > 100 | > 100 | > 100 | > 100 | > 100 | > 100 | > 100 | > 100 | > 100 | > 100 | > 100 | > 100 | > 100 | – | –
CCN(CC)C(=S)N/N=C(\C)c1ccccc1O | – | > 100 | – | > 100 | – | > 100 | – | – | – | 79 | – | > 100 | – | – | – | > 100 | – | 33 | > 100 | –
C=C(CN1CCN(c2ccccc2F)CC1)c1ccc(C(=O)Nc2ccccc2N)cc1 | 3.74 | > 100 | 2.14 | 7.82 | 0.353 | 2.87 | – | – | 7.73 | > 100 | 1.53 | > 100 | 0.957 | 13.5 | 4.67 | > 100 | 1.48 | 4.41 | – | –
O=C(c1ccc(NCN2C(=O)CCC2=O)cc1)c1ccc(NCN2C(=O)CCC2=O)cc1 | – | > 100 | – | > 100 | – | 49.5 | – | – | – | – | – | > 100 | – | > 100 | – | > 100 | – | > 100 | – | –
CNS(=O)(=O)NN(C)S(=O)(=O)c1ccc(Br)cc1 | – | > 100 | – | > 100 | – | > 100 | – | – | – | – | – | > 100 | – | > 100 | – | > 100 | – | > 100 | > 100 | –
O=[N+]([O-])c1cc(Br)cc2c1[nH]c1ccc(Br)cc12 | 16.1 | 70.8 | 2.56 | 7.42 | – | – | 20.6 | > 100 | 3.59 | 15.4 | 10.8 | 66.3 | 5 | 21.5 | 3.19 | > 100 | 3.09 | 40.3 | – | –
O[C@]12CCCC[C@H]1CCC2 | – | > 100 | – | > 100 | – | > 100 | – | – | – | > 100 | – | > 100 | – | > 100 | – | > 100 | – | > 100 | – | –
CC(=O)O[C@@H]1CC(C)C2CC2C2=C(C(O)OC2O)[C@@H]1C(C)CCC=C(C)C (some centres undefined) | – | 99.5 | – | – | – | 43.1 | – | – | – | – | – | 67 | – | 32.7 | – | > 100 | – | 31.5 | – | –
CNC1NC(=O)c2ccccc2N1Cc1ccc(F)cc1 (centres undefined) | – | > 100 | – | > 100 | – | > 100 | – | > 100 | – | > 100 | – | > 100 | – | > 100 | – | > 100 | – | > 100 | – | –
COc1ccc(/C=C2\CNC/C(=C\c3ccc(OC)cc3)C2=O)cc1 | – | > 100 | – | > 100 | – | 38.5 | – | – | – | > 100 | – | > 100 | – | 13 | – | > 100 | – | – | > 100 | –
N#CC1(c2nc3ccccc3o2)C(=O)C(=O)N(c2ccc(Cl)c(Cl)c2)C(=O)C1=O | – | > 100 | – | > 100 | – | > 100 | – | – | – | – | – | > 100 | – | – | – | > 100 | – | > 100 | – | –
CCCCC(=O)[O-].N.N.N.N.N.[Co+3].[O-][Cl+3]([O-])([O-])[O-] | > 100 | > 100 | > 100 | > 100 | – | – | – | – | > 100 | > 100 | > 100 | > 100 | > 100 | > 100 | > 100 | > 100 | > 100 | > 100 | – | –
Cc1nc(Nc2ccc(F)c(Cl)c2)sc1C(=O)O | 1.93 | 5.22 | 1.82 | 4.47 | 3.41 | 8.17 | 2.13 | 5.25 | 1.83 | 4.33 | 1.65 | 3.71 | 1.51 | 3.34 | 0.865 | 5.76 | 1.1 | 3.17 | – | –
CN(C)c1ccc(/C=C2\N=C(c3ccc(N)cc3)OC2=O)cc1 | – | > 100 | – | > 100 | – | > 100 | – | – | – | > 100 | – | > 100 | – | – | – | > 100 | – | > 100 | – | –
CC[O-].CC[O-].O=Nc1ccc2cc([O-])ccc2c1.O=Nc1ccc2cc([O-])ccc2c1.[Ti+4] | 3.61 | 13.2 | 1.44 | 3.82 | 1.2 | 3.71 | – | – | 14.6 | 20 | 1.69 | 3.06 | 1.77 | 3.22 | 3.77 | 11.8 | – | – | 2.95 | 0.0107
C=CCN=C1N=C(CC(=O)OCC)CS1 | – | > 100 | – | > 100 | – | > 100 | – | – | – | > 100 | – | > 100 | – | > 100 | – | > 100 | – | > 100 | – | –
Cc1ccc(S(=O)(=O)OCC23CCC(C4CC42)C2CC23)cc1 (centres undefined) | – | > 100 | – | > 100 | – | 37.8 | – | – | – | > 100 | – | > 100 | – | > 100 | – | – | – | – | > 100 | –
